# Assay results: patent publication US8324197B2, “Transplatinum complexes with N2O2 donor sets as cytotoxic and antitumor agents” (Virginia Commonwealth University, priority 2005, dated 2012)
# How the values were obtained:
# [1] = Aqueous solubility of TPA-acetate complexes (sequential addition of water); format: physicochemical; details: ambient temperature
# Description: (§1) The aqueous solubility of the acetate compounds and the acid dissociation constants of the corresponding aqua species are given in Table 1. Use of acetates enhances aqueous solubility which is dependent on the exact nature of the donor ligands. The pKa values were determined by potentiometric titration of solutions of trans-[Pt(H2O)2(L)(L′)]^2+ (formed by the dissolution of the isolated trans-[Pt(NO3)2(L)(L′)]) with NaOH. […] (X=2,3,4-Me).^30
# [2] = pKa of corresponding TPA diaqua complexes by potentiometric titration with NaOH; format: physicochemical; details: corresponding diaqua complex trans-[Pt(OH2)2(L)(L′)], ambient temperature
# Description: as §1
# [3] = Hydrolysis (first aquation step) followed by HPLC, Example 5; format: physicochemical; details: nanopure water
# Description: For hydrolysis studies, […] complex was dissolved in 1 mL of nanopure water. The pH values of the samples were controlled in regular intervals and readjusted if necessary by addition of HNO3 (1 M, 0.1 M, 0.01 M) or NaOH (1 M, 0.1 M, 0.01 M). Aliquots of 20 μL were taken from the bulk solution for HPLC analysis. The overall scheme may be described as follows:
# The aquated species were identified by comparison with the hydrolysis profile produced by the corresponding (labile) nitrate compounds. The rate constants for the first aquation step k1 are given in Table 2 and compared with other platinum complexes containing one or two labile ligands. […] In particular, these rates are 2-3 orders of magnitude lower than that of transplatin itself. The rate of aquation tends toward that of carboplatin which in phosphate buffer at 310 K gave a hydrolysis rate of 7.2×10^−7 s^−1 (but in aqueous solution gives a barely measurable rate constant of <5×10^−9 s^−1, which is modulated by the presence of buffer, nucleophile or acid). ^31,32No evidence for formation of Pt(TV) species during hydrolysis is detected under these conditions.^33
# 41M = assay: Growth inhibition in human ovarian cancer cell line panel, 96 h exposure; format: cell-based
# Description: (§2) It is noteworthy that the acetate compounds maintain cytotoxicity with low resistance factors in all cases. The trans-[Pt(OAc)2(NH3)2] compound is also very water-soluble but the cytotoxicity of >100 μM confirms the requirement for a planar amine to enhance cytotoxicity in the trans geometry.
# A2780 = assay: as above; format: cell-based
# Description: as §2
# CH1 = assay: as above; format: cell-based
# Description: as §2
# [4] = Solubility of TPA carboxylates, Example 6; format: physicochemical; details: aqueous; table title ambient temperature, text 37° C.
# [5] = Initial hydrolysis of TPA carboxylates monitored by HPLC at 37° C.; format: physicochemical; details: H2O, I=0.02 M
# Description: The slowest initial hydrolysis rate was found for complex 2c t-[Pt(OAc)2(NH3)(2-pic)], with just 4% hydrolysis occurring after 9 h. The hydrolysis of the formate complex 4f was the fastest, with 24% hydrolysis occurring after 9 h. The hydrolysis rates of the acetate complexes followed the pattern 2c<4c<3c. […] Thus, hydrolysis of the acetate complexes is slowed by an approximate order of magnitude compared to their direct chloro analogs but there is little difference in the present case between 3- and 4-picoline. Steric hindrance therefore predominates over the electronic effects of the methyl group. In the case of the chloride complexes, the 3-pic directs less electron density to the platinum rendering it less nucleophilic relative to the 2-pic and 4-pic. 14 We observe the same trend in the acetate complexes, but the effect is lessened due to the carboxylate group being a weak ligand, with a low trans influence and trans effect.^11
# [6] = test system: guanosine-5′-monophosphate (5′-GMP, model for DNA); assay: Reaction with 5′-GMP followed by 195Pt NMR; details: within 24 h
# Source text: The slow hydrolysis is a unique feature of two carboxylate ligands in a trans-axial position and can be modulated by choice of carboxylate. To examine how this might affect possible reactions with biomolecules, a preliminary study of the reactions of 4e with guanosine-5′-monophosphate (5′-GMP, model for DNA) and N-acetyl-L-methionine (N-AcMet, model for sulfur ligand metabolism) was made by ^195Pt NMR Spectroscopy. In the case of 5′-GMP the peak of the starting material at −1450 ppm is only gradually replaced by a new peak at −2365 ppm. This shift is consistent with the formation of a species that has a PtN4 coordination sphere,^26 due to replacement of both formate groups. Approximately 50% reaction (as judged by the intensity of the ^1H H8 signal and ^195Pt NMR signals), occurred within 24h. For N-AcMet the starting material was approximately 50% of total intensity even after 8 h. […] The chemical shift is consistent with a PtN2O2 coordination sphere—this could arise from displacement of formate by H2O/OH or an O-bound methionine.^27 This species preceded the formation of the N-AcMet product at −3320 ppm consistent with a PtN2S2 coordination sphere, trans-[Pt(NH3)(4-pic)(NAcMet)2],^23,28 which was 40% of the total platinum species after 10 h. […]
# [7] = Reaction with N-AcMet followed by 195Pt NMR
# Source text: The slow hydrolysis is a unique feature of two carboxylate ligands in a trans-axial position and can be modulated by choice of carboxylate. To examine how this might affect possible reactions with biomolecules, a preliminary study of the reactions of 4e with guanosine-5′-monophosphate (5′-GMP, model for DNA) and N-acetyl-L-methionine (N-AcMet, model for sulfur ligand metabolism) was made by ^195Pt NMR Spectroscopy. In the case of 5′-GMP the peak of the starting material at −1450 ppm is only gradually replaced by a new peak at −2365 ppm. This shift is consistent with the formation of a species that has a PtN4 coordination sphere,^26 due to replacement of both formate groups. Approximately 50% reaction (as judged by the intensity of the ^1H H8 signal and ^195Pt NMR signals), occurred within 24h. For N-AcMet the starting material was approximately 50% of total intensity even after 8 h. […] The chemical shift is consistent with a PtN2O2 coordination sphere—this could arise from displacement of formate by H2O/OH or an O-bound methionine.^27 This species preceded the formation of the N-AcMet product at −3320 ppm consistent with a PtN2S2 coordination sphere, trans-[Pt(NH3)(4-pic)(NAcMet)2],^23,28 which was 40% of the total platinum species after 10 h. […] Whether the possible formation of an O-bound methionine species is a reflection of the low pKal and the electronic effects of a π-acceptor ligand is worthy of further investigation.
# [8] = test system: human ovarian cancer cell line A2780; assay: MTT growth inhibition assay; format: cell-based; details: 72 h
# Source text: • (1) Van Beusichem, M.; Farrell, N. Inorg. Chem. 1992, 31, 634-639. • (2) Farrell, N.; Kelland, L. R.; Roberts, J. D.; Van Beusichem, M. Cancer Res. 1992, 52, 5065-5072. • (3) Farrell, N. Cancer Invest. 1993, 11, 578-589. • (4) Coluccia, M.; Nassi, A.; Loseto, F.; Boccarelli, A.; Mariggio, M. A.; Giordano, D.; Intini, F. P.; Caputo, P.; Natile, G. J. Med. Chem. 1993, 36, 510-512. • (5) Khazanov, E.; Barenholz, Y.; Gibson, D.; Najajreh, Y. J. Med. Chem. 2002, 45, 5196-5204. • (6) Najajreh, Y.; Perez, J. M.; Navarro-Ranninger, C.; Gibson, D. J. Med. Chem. 2002, 45, 5189-5195. • (7) Montero, E. I.; Diaz, S.; Gonzalez-Vadillo, A. M.; Perez, J. M.; Alonso, C.; Navarro-Ranninger, C. J. Med. Chem. 1999, 42, 4264-4268. • (8) Natile, G.; Coluccia, M. Coord. Chem. Rev. 2001, 216-217, 383-410. • (9) Fojo, T.; Farrell, N.; Ortuzar, W.; Tanimura, H.; Weinstein, J.; Myers Timothy, G. I Crit. Rev. Oncol./ Hematol. 2005, 53, 25-34. • (10) Murphy, R. F.; Farrell, N.; Aguila, A.; Okada, M.; Balis, F. M.; Fojo, T. Proc. Am. Assoc. […] IC50 values were determined graphically
# [9] = RF = (IC50 Resistant)/(IC50 Sensitive)
Solubility [1] [mg/mL],pKa1 [2],pKa2 [2],"k1, rate constant for the first aquation step [3]",IC50 (41M) [µM],IC50 (A2780) [µM],IC50 (CH1) [µM],"Solubility (mg/mL), TPA Substituted Carboxylates [4] [mg/mL]","k1, initial hydrolysis rate constant [5] [s⁻¹]",reaction with 5′-GMP (by 1H H8 and 195Pt NMR signal intensity) [6],"starting material remaining, of total intensity ([7]; after 8 h)","N-AcMet product at −3320 ppm (PtN2S2), of total platinum species ([7]; after 10 h) [%]","new species at −1775 ppm (PtN2O2), of total reaction product ([7]; over 10 h) [%]",SMILES,41M RF (41M; [9]),A2780 RF (A2780; [9]),CH1 RF (CH1; [9]),cytotoxicity (growth inhibition) [8]
5.2,3.78,6.92,(7.4 ± 1.5) × 10^−7 s^−1,22,13,20,–,–,–,–,–,–,"CC(=O)[O-].CC(=O)[O-].N.[Pt+2].c1ccc2cnccc2c1 [trans-[Pt(OAc)2(NH3)(iquin)], trans-[diacetato(ammine)(isoquinoline)platinum(II)]]",(0.26),(1.69),(0.37),–
–,–,–,–,–,–,–,35,1.07e-05,Approximately 50%,Approximately 50%,40,≤ 15,"Cc1ccncc1.N.O=C[O-].O=C[O-].[Pt+2] [4e, trans-[Pt(OFm)2(NH3)(4-pic)]]",–,–,–,most cytotoxic
